The subject of experiment [1] is MDRAB strain BF50. The experiment is classed as cell-based, Acinetobacter baumannii. The conditions noted are these: 24 h. How it is done: (§1) All AMPs and TP4 derivatives used in this study were synthesized by Kelowna International Scientific Inc. (Taipei City, Taiwan) with more than 95% purity, and their molecular weights were verified by mass spectrum analysis. MBC were determined by extending the MIC procedure in sterilized 96-well polypropylene microtiter plates according to the broth microdilution guidelines of the Clinical and Laboratory Standards Institute with some modification. Briefly, 5 × 10^5 CFU/mL of bacteria were inoculated in LB medium containing AMPs or antibiotic at final concentrations ranging from 512 to 1 μg/mL (from serial twofold dilutions). After incubation for 24 h at 37 °C, the lowest concentration showing no visible growth was used as the MIC value. In addition, 10 µL was drawn from each well with no visible turbidity onto LB agar plates and incubated for 24 h at 37 °C. The lowest concentration showing no visible growth on agar subculture was used as the MBC value. All experiments were performed in triplicate.

Experiment [2] has as its system MDRAB strain MO91. The experiment is classed as cell-based, Acinetobacter baumannii. Particulars: 24 h. Here is the method: as §1
Experiment [3] relates to Acinetobacter baumannii 17,978. The experiment is classed as cell-based. The conditions noted are these: 17,978, 24 h.
Experimental: MBC were determined by extending the MIC procedure in sterilized 96-well polypropylene microtiter plates according to the broth microdilution guidelines of the Clinical and Laboratory Standards Institute with some modification[47]. […] In addition, 10 µL was drawn from each well with no visible turbidity onto LB agar plates and incubated for 24 h at 37 °C. The lowest concentration showing no visible growth on agar subculture was used as the MBC value. All experiments were performed in triplicate.
Experiment [4] concerns Acinetobacter baumannii 19,606. The experiment is classed as cell-based. Particulars: 19,606, 24 h.

In brackets after ≈: the same amount, converted by molar mass. No end group written: not given here.

Take `CC[C@H](C)[C@H](NC(=O)[C@H](CO)NC(=O)[C@H](Cc1ccccc1)NC(=O)[C@H](CC(C)C)NC(=O)CNC(=O)CNC(=O)[C@@H](NC(=O)[C@@H](NC(=O)[C@H](Cc1c[nH]cn1)NC(=O)[C@H](Cc1c[nH]cn1)NC(=O)[C@@H](NC(=O)[C@@H](N)Cc1ccccc1)[C@@H](C)CC)[C@@H](C)CC)[C@@H](C)CC)C(=O)NCC(=O)N[C@@H](CCCCN)C(=O)N[C@H](C(=O)N[C@H](C(=O)N[C@@H](Cc1c[nH]cn1)C(=O)N[C@@H](CCCNC(=N)N)C(=O)N[C@@H](CC(C)C)C(=O)N[C@H](C(=O)N[C@@H](CCCNC(=N)N)C(=O)N[C@@H](CCCNC(=N)N)C(=O)N[C@@H](CCCNC(=N)N)C(=O)N[C@@H](CCCNC(=N)N)C(=O)N[C@@H](CCCNC(=N)N)C(=O)O)[C@@H](C)CC)[C@@H](C)CC)[C@@H](C)CC` [A12I/A15I]: the minimal bactericidal concentration (MBC) in experiment [1] was 128 µg/mL (≈ 41.8 µM); in experiment [2], 128 µg/mL (≈ 41.8 µM); in experiment [3], 64 µg/mL (≈ 20.9 µM); in experiment [4], 128 µg/mL (≈ 41.8 µM). The MIC turned out to be 64 µg/mL (≈ 20.9 µM) in experiment [1], 32 µg/mL (≈ 10.4 µM) in experiment [2], 64 µg/mL (≈ 20.9 µM) in experiment [3] and 32 µg/mL (≈ 10.4 µM) in experiment [4].

For AAHHIIGGLFSAGKAIHRLIRRRRR [F1A/I2A], the MBC in experiment [1] worked out at 32 µg/mL; in experiment [2], 32 µg/mL; in experiment [3], 32 µg/mL; in experiment [4], 16 µg/mL. The MIC in experiment [1] was 16 µg/mL; in experiment [2] it was 32 µg/mL; in experiment [3], 32 µg/mL; in experiment [4], 16 µg/mL.

Take FIAAIIGGLFSAGKAIHRLIRRRRR [H3A/H4A]: the MBC in experiment [1] came to 128 µg/mL; in experiment [2] it was 256 µg/mL; in experiment [3], 128 µg/mL; in experiment [4] it was 64 µg/mL. For the same compound, the MIC in experiment [1], in experiment [2], in experiment [3] and in experiment [4] was 64 µg/mL in each case.

Consider FIHHAAGGLFSAGKAIHRLIRRRRR [I5A/I6A], for which the MBC turned out to be 64 µg/mL in experiment [1], 128 µg/mL in experiment [2], 32 µg/mL in experiment [3] and 64 µg/mL in experiment [4]. Also, the MIC in experiment [1] was 32 µg/mL; in experiment [2], 64 µg/mL; in experiment [3] it was 32 µg/mL; in experiment [4], 64 µg/mL.

For FIHHIIGGAASAGKAIHRLIRRRRR [L9A/F10A], the MBC in experiment [1] amounted to 64 µg/mL; in experiment [2], 128 µg/mL; in experiment [3] it was 64 µg/mL; in experiment [4] it was 128 µg/mL. Further, the minimum inhibitory concentration (MIC) in experiment [1] amounted to 64 µg/mL; in experiment [2], 128 µg/mL; in experiment [3] it was 64 µg/mL; in experiment [4], 64 µg/mL.

Consider “FIHHIIGGLFSAGKAAHRLIRRRRR [Peptide I16A]”, for which the MBC in experiment [1] was found to be 16 µg/mL; in experiment [2], 32 µg/mL; in experiment [3] it was 32 µg/mL; in experiment [4] it was 32 µg/mL. Moreover, the MIC in experiment [1] turned out to be 16 µg/mL; in experiment [2], 16 µg/mL; in experiment [3], 16 µg/mL; in experiment [4], 32 µg/mL.

As for “FIHHIIGGLFSAGKAEHRLIRRRRR [Peptide I16E]”, the MBC in experiment [1], in experiment [2], in experiment [3] and in experiment [4] was above 256 µg/mL each time. For the same compound, the MIC in experiment [1], in experiment [2], in experiment [3] and in experiment [4] was above 256 µg/mL each time.

As to FIHHIIGGLFSAGKAIHRHHRRRRR [L19H/I20H], the minimal bactericidal concentration (MBC) came to 32 µg/mL in experiment [1], 32 µg/mL in experiment [2], 32 µg/mL in experiment [3] and 64 µg/mL in experiment [4]. In addition, the MIC in experiment [1] worked out at 32 µg/mL; in experiment [2] it was 32 µg/mL; in experiment [3], 32 µg/mL; in experiment [4] it was 64 µg/mL.

Consider FIHHIIGGLFSAGKAIHSLIHRRRR [R18S/R21H], for which the minimum bactericidal concentration (MBC) amounted to 64 µg/mL in experiment [1], 32 µg/mL in experiment [2], 32 µg/mL in experiment [3] and 32 µg/mL in experiment [4]. Further, the minimal inhibitory concentration (MIC) in experiment [1] was found to be 16 µg/mL; in experiment [2] it was 32 µg/mL; in experiment [3] it was 16 µg/mL; in experiment [4] it was 32 µg/mL.

Consider “FIHHIIGGLFSAGKARHRLIRRRRR [Peptide I16R]”, for which the MBC in experiment [1] is 128 µg/mL; in experiment [2], 256 µg/mL; in experiment [3] it was 128 µg/mL; in experiment [4], 64 µg/mL. Besides, the minimum inhibitory concentration (MIC) in experiment [1] came out at 64 µg/mL; in experiment [2], 64 µg/mL; in experiment [3], 128 µg/mL; in experiment [4], 64 µg/mL.

Consider FIHHIIGGLFSVGKHIHRLIRRRRR [A12V/A15H], for which the minimal bactericidal concentration (MBC) in experiment [1] was found to be 128 µg/mL; in experiment [2], 256 µg/mL; in experiment [3], 32 µg/mL; in experiment [4] it was 32 µg/mL. For the same compound, the MIC in experiment [1], in experiment [2], in experiment [3] and in experiment [4] was 16 µg/mL each time.

In general, MBC refers to the lowest tested concentration that kills the bacteria rather than only halting them. A higher MBC goes with less potent killing. As usually defined, the MIC is the lowest concentration found to suppress growth. A lower MIC goes with greater potency.

The values are drawn from publication PMC8016998, “Identification of potential therapeutic antimicrobial peptides against Acinetobacter baumannii in a mouse model of pneumonia” (Scientific Reports, 2021).
